Measurements as given in US10570121B2, “Substituted dihydroisoquinolinone compounds” (priority 2014, dated 2020).
Like-named read-outs stand apart in the source and are kept apart here.

Columns and labels:
[1] = target: WT EZH2 (Homo sapiens (Human), UniProt Q15910); assay: WT EZH2 nucleosome assay (10X SAM, high SAM conditions); assay type: biochemical; conditions: 15 uM SAM, Ki app from competitive inhibition fit
[2] = target: EZH2 Mutant Y641N (Homo sapiens (Human), UniProt Q15910, Y641N); assay: EZH2 Mutant Y641N nucleosome assay; assay type: biochemical; conditions: PRC2 4-protein complex 6 nM, 1.5 μM SAM, HeLa oligonucleosomes
[3] = read-out: WT EZH2 Nucleosome assay (10X SAM) Ki
[4] = read-out: EZH2 Mutant Y641N Nucleosome assay IC50
[5] = WT EZH2 Nucleosome assay (10X SAM) Ki (μM)
[6] = EZH2 Mutant Y641N Nucleosome assay IC50 (μM)

EZH2 Mutant Y641N, sequence (Q15910 whole entry Y641N, looked up): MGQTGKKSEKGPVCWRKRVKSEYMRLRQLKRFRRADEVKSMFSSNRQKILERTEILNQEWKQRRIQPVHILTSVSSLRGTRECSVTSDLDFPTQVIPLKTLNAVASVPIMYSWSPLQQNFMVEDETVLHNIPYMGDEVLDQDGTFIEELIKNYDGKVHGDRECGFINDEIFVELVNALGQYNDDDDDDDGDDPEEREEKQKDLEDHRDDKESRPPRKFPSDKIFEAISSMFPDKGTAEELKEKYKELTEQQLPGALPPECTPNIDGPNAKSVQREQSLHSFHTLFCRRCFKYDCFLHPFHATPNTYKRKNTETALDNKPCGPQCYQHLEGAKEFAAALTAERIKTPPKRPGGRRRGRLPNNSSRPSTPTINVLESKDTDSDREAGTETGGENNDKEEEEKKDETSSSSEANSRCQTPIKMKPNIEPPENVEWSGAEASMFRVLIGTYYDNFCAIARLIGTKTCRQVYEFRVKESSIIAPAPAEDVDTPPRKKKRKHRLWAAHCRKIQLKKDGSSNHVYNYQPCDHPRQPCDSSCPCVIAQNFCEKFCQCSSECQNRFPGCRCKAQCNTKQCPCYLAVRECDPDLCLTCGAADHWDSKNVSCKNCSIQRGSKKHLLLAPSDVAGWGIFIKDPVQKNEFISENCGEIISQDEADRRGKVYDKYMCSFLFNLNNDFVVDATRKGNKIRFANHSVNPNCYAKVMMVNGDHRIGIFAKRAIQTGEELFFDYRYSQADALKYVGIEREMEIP
EZH2 Mutant Y641N, sequence (O75530 whole entry partner, looked up): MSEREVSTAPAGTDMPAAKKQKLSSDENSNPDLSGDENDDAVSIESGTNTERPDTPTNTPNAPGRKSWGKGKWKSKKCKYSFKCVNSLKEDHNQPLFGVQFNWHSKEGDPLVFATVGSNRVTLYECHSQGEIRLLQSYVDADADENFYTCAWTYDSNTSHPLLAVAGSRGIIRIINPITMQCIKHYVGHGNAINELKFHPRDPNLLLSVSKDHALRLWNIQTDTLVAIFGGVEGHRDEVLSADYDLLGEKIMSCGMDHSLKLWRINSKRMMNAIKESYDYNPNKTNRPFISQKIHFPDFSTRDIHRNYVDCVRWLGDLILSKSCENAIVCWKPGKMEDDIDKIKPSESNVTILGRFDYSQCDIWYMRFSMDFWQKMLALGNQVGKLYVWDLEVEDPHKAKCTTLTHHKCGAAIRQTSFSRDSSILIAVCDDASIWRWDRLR
EZH2 Mutant Y641N, sequence (Q15022 whole entry partner, looked up): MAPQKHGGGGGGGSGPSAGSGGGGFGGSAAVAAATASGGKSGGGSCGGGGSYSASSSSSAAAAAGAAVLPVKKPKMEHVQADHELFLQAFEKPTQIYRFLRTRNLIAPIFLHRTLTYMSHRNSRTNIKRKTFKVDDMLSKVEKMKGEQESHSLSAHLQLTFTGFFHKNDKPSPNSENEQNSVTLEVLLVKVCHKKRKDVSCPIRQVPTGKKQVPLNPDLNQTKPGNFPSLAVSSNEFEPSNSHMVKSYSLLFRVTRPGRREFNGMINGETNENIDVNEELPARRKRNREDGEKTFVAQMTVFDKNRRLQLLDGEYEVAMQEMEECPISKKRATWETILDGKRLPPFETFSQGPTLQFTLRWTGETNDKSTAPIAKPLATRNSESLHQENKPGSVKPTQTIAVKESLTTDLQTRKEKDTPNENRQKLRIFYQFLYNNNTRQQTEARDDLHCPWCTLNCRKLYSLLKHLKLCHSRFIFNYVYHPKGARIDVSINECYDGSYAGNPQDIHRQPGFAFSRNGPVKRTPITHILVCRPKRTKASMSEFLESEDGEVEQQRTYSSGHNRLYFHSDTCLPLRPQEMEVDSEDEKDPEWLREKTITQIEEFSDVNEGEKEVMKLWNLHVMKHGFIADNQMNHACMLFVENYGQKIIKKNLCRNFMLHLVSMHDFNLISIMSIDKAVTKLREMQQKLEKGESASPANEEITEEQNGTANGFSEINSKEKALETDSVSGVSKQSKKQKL
EZH2 Mutant Y641N, sequence (Q09028 whole entry partner, looked up): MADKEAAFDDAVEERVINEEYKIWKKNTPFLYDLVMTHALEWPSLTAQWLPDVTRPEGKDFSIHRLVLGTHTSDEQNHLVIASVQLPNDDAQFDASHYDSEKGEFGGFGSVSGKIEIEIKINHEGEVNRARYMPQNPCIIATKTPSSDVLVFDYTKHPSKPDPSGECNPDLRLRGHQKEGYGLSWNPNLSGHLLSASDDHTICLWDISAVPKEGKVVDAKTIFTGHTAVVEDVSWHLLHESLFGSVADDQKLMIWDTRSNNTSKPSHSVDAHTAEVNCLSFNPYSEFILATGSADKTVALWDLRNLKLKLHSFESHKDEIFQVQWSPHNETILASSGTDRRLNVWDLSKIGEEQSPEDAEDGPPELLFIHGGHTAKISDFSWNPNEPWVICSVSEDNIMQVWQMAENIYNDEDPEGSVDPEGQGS
WT EZH2, sequence (Q15910 whole entry, looked up): as the sequence (Q15910 whole entry Y641N, looked up) above, with N641Y counted along it
WT EZH2, sequence (O75530 whole entry partner, looked up): as the sequence (O75530 whole entry partner, looked up) above
WT EZH2, sequence (Q15022 whole entry partner, looked up): as the sequence (Q15022 whole entry partner, looked up) above
WT EZH2, sequence (Q09028 whole entry partner, looked up): as the sequence (Q09028 whole entry partner, looked up) above

Row | Structure (SMILES) | Ki [1, 3] [µM] | IC50 [2, 4] [µM] | Ki [1, 5] [µM] | IC50 [2, 6] [µM]
1 | Cc1cc(C)c(CN2CCc3c(C)cc(C(C)C4CN(S(C)(=O)=O)C4)c(Cl)c3C2=O)c(=O)[nH]1 (single isomer, unassigned) [Example 193] | 0.001 | 0.01 |  | 
2 | CC(=C1CCNCC1)c1cc(Cl)c2c(c1Cl)C(=O)N(Cc1c(C)cc(C)[nH]c1=O)CC2 [Example 80] | 0.001 | 0.007 |  | 
3 | COC(c1cc(Cl)c2c(c1Cl)C(=O)N(Cc1c(C)cc(C)[nH]c1=O)CC2)C(C)O (stereo not shown) [Example 102] | 0.018 | 0.178 |  | 
4 | Cc1cc(C)c(CN2CCc3c(Cl)cc(C(CO)N4CC[C@@H](F)C4)c(Cl)c3C2=O)c(=O)[nH]1 (single isomer, unassigned) [Example 7] | 0.171 | 1.62 |  | 
5 | Cc1cc(C)c(CN2CCc3c(Cl)cc([C@H](CO)[C@@H]4CCCO4)c(Cl)c3C2=O)c(=O)[nH]1 [Example 12, 5,8-dichloro-2-[(4,6-dimethyl-2-oxo-1,2-dihydropyridin-3-yl)methyl]-7-{(1R)-2-hydroxy-1-[(2S)-tetrahydrofuran-2-yl]ethyl}-3,4-dihydroisoquinolin-1(2H)-one] | 0.004 | 0.016 |  | 
6 | COc1cc(C)[nH]c(=O)c1CN1CCc2c(Cl)cc(C(C)C3CCN(C(=O)CO)CC3)c(Cl)c2C1=O (single isomer, unassigned) [Example 201] | 0.007 | 0.037 |  | 
7 | COc1cc(C)[nH]c(=O)c1CN1CCc2c(C)cc(C(C)C3COC3)c(Cl)c2C1=O (single isomer, unassigned) [Example 197] | 0.033 | 0.062 |  | 
8 | Cc1cc(C)c(CN2CCc3c(C)cc(C(CO)C4CCOCC4)c(Cl)c3C2=O)c(=O)[nH]1 (single isomer, unassigned) [Example 101] | 0.0003 | 0.007 |  | 
9 | COc1cc(C)[nH]c(=O)c1CN1CCc2c(C)cc([C@H](OC)[C@@H]3CCOC3)c(Cl)c2C1=O [Example 83, 8-chloro-2-[(4-methoxy-6-methyl-2-oxo-1,2-dihydropyridin-3-yl)methyl]-7-{(R)-methoxy[(3R)-tetrahydrofuran-3-yl]methyl}-5-methyl-3,4-dihydroisoquinolin-1(2H)-one] | 0.0004 | 0.004 |  | 
10 | CCC(OC)c1cc(Cl)c2c(c1Cl)C(=O)N(Cc1c(OC)cc(C)[nH]c1=O)CC2 (single isomer, unassigned) [Example 108] | 0.0017 | 0.016 |  | 
11 | Cc1cc(C)c(CN2CCc3c(Cl)cc([C@H](CO)[C@H]4CCCO4)c(Cl)c3C2=O)c(=O)[nH]1 [Example 13, 5,8-dichloro-2-[(4,6-dimethyl-2-oxo-1,2-dihydropyridin-3-yl)methyl]-7-{(1R)-2-hydroxy-1-[(2R)-tetrahydrofuran-2-yl]ethyl}-3,4-dihydroisoquinolin-1(2H)-one] | 0.003 | 0.018 |  | 
12 | Cc1cc(C)c(CN2CCc3c(Cl)cc(C(C)N4CCOCC4)c(Cl)c3C2=O)c(=O)[nH]1 (racemic) [Example 89, (±)-5,8-dichloro-2-[(4,6-dimethyl-2-oxo-1,2-dihydropyridin-3-yl)methyl]-7-[1-(morpholin-4-yl)ethyl]-3,4-dihydroisoquinolin-1(2H)-one] | 0.008 | 0.088 |  | 
13 | COC(c1cc(Cl)c2c(c1Cl)C(=O)N(Cc1c(C)cc(C)[nH]c1=O)CC2)C1(O)CCOCC1 (single isomer, unassigned) [Example 53] | 0.001 | 0.017 |  | 
14 | COC(c1ccc2c(c1Cl)C(=O)N(Cc1c(C)cc(C)[nH]c1=O)CC2)C1CCOC1 (single isomer, unassigned) [Example 132] | 0.001 | 0.013 |  | 
15 | COc1cc(C)[nH]c(=O)c1CN1CCc2c(Cl)cc([C@H](CO)[C@@H]3CCCO3)c(Cl)c2C1=O [Example 106] | 0.0006 | 0.008 |  | 
16 | Cc1cc(C)c(CN2CCc3c(Cl)cc(C(CO)N4CC[C@@H](F)C4)c(Cl)c3C2=O)c(=O)[nH]1 (stereo partly drawn) [Example 5, 5,8-dichloro-2-[(4,6-dimethyl-2-oxo-1,2-dihydropyridin-3-yl)methyl]-7-{1-[(3R)-3-fluoropyrrolidin-1-yl]-2-hydroxyethyl}-3,4-dihydroisoquinolin-1(2H)-one] | 0.033 | 0.189 |  | 
17 | COc1cc(C)[nH]c(=O)c1CN1CCc2c(Cl)cc([C@@H](OC)C3COC3)c(Cl)c2C1=O [Example 82, 5,8-dichloro-2-[(4-methoxy-6-methyl-2-oxo-1,2-dihydropyridin-3-yl)methyl]-7-[(S)-methoxy(oxetan-3-yl)methyl]-3,4-dihydroisoquinolin-1(2H)-one] | 0.006 | 0.131 |  | 
18 | COC(c1cc(Cl)c2c(c1Cl)C(=O)N(Cc1c(C)cc(C)[nH]c1=O)CC2)C1(O)CCOCC1 (single isomer, unassigned) [Example 52] | 0.298 | 1.04 |  | 
19 | Cc1cc(C)c(CN2CCc3c(C)cc(C(CO)C4CCOCC4)c(Cl)c3C2=O)c(=O)[nH]1 (single isomer, unassigned) [Example 100] | 0.309 | 3.73 |  | 
20 | Cc1cc(C)c(CN2CCc3c(Cl)cc(C(CO)N4CC[C@H](F)C4)c(Cl)c3C2=O)c(=O)[nH]1 (stereo partly shown) [Example 58] | 0.057 | 0.513 |  | 

Second part, the molecule after the results:

Row | Ki [1, 3] [µM] | IC50 [2, 4] [µM] | Ki [1, 5] [µM] | IC50 [2, 6] [µM] | Structure (SMILES)
21 | 0.0446 | 0.553 |  |  | COC(c1cc(C)c2c(c1Cl)C(=O)N(Cc1c(C)cc(C)[nH]c1=O)CC2)C1CCN(C2COC2)CC1 (single isomer, unassigned) [Example 154]
22 |  |  | 0.148 | 2.97 | COC(c1cc(Cl)c2c(c1Cl)C(=O)N(Cc1c(C)cc(C)[nH]c1=O)CC2)C1CCOC1 (single isomer, unassigned) [Example 162]
23 |  |  | 0.003 | 0.019 | CCC(OC)c1cc(Cl)c2c(c1Cl)C(=O)N(Cc1c(C)cc(C)[nH]c1=O)CC2 (single isomer, unassigned) [Example 15, 5,8-dichloro-2-[(4,6-dimethyl-2-oxo-1,2-dihydropyridin-3-yl)methyl]-7-(1-methoxypropyl)-3,4-dihydroisoquinolin-1(2H)-one]
24 | 0.002 | 0.014 |  |  | COC(c1cc(Cl)c2c(c1Cl)C(=O)N(Cc1c(C)cc(C)[nH]c1=O)CC2)C1(F)CCN(C)CC1 (single isomer, unassigned) [Example 120]
25 | 2.23 | 9.15 |  |  | COC(c1cc(C)c2c(c1Cl)C(=O)N(Cc1c(C)cc(C)[nH]c1=O)CC2)C1CN(C2COC2)C1 (single isomer, unassigned) [Example 182]
26 | 0.0151 | 0.07 |  |  | COC(c1cc(C)c2c(c1Cl)C(=O)N(Cc1c(C)cc(C)[nH]c1=O)CC2)C1CCN(C(=O)CO)CC1 (single isomer, unassigned) [Example 169]
27 | 0.031 | 0.127 |  |  | COC(c1cc(Cl)c2c(c1Cl)C(=O)N(Cc1c(C)cc(C)[nH]c1=O)CC2)C1CCN(C(=O)CC#N)CC1 (single isomer, unassigned) [Example 61]
28 | 0.016 | 0.206 |  |  | COC(c1cc(Cl)c2c(c1Cl)C(=O)N(Cc1c(C)cc(C)[nH]c1=O)CC2)C1CN(C(=O)[C@H](C)O)C1 (single isomer, unassigned) [Example 173]
29 | 0.001 | 0.009 |  |  | COC(c1cc(Cl)c2c(c1Cl)C(=O)N(Cc1c(C)cc(C)[nH]c1=O)CC2)C1CC(=O)N(C)C1 (single isomer, unassigned) [Example 179]
30 | 0.0001 | 0.0035 |  |  | COC(c1cc(Br)c2c(c1Cl)C(=O)N(Cc1c(C)cc(C)[nH]c1=O)CC2)C1CCN(C)CC1 (single isomer, unassigned) [Example 146]
31 | 0.001 | 0.041 |  |  | COC(c1cc(C)c2c(c1Cl)C(=O)N(Cc1c(C)cc(C)[nH]c1=O)CC2)C1CN(C2COC2)C1 (single isomer, unassigned) [Example 181]
32 | 0.39 | 2.16 |  |  | COC(c1cc(Cl)c2c(c1Cl)C(=O)N(Cc1c(C)cc(C)[nH]c1=O)CC2)C1CC(=O)N(C)C1 (single isomer, unassigned) [Example 180]
33 | 0.0013 | 0.027 |  |  | COC(c1cc(C)c2c(c1Cl)C(=O)N(Cc1c(C)cc(C)[nH]c1=O)CC2)C1CCN(C2COC2)CC1 (single isomer, unassigned) [Example 155]
34 | 0.103 | 1.17 |  |  | COC(c1cc(Cl)c2c(c1Cl)C(=O)N(Cc1c(C)cc(C)[nH]c1=O)CC2)[C@H](C)CO (single isomer, unassigned) [Example 140]
35 | 0.0007 | 0.008 |  |  | COC(c1cc(C)c2c(c1Cl)C(=O)N(Cc1c(C)cc(C)[nH]c1=O)CC2)C1CCN(C(=O)CO)CC1 (single isomer, unassigned) [Example 168]
36 | 0.0007 | 0.008 |  |  | Cc1cc(C)c(CN2CCc3c(Cl)cc(C(C)N4CCNCC4)c(Cl)c3C2=O)c(=O)[nH]1 (racemic) [Example 205]
37 |  |  | 0.375 | 1.71 | COC(c1cc(Cl)c2c(c1Cl)C(=O)N(Cc1c(C)cc(C)[nH]c1=O)CC2)C1CCN(C2COC2)CC1 (single isomer, unassigned) [Example 156]
38 | 0.0008 | 0.008 |  |  | COC(c1cc(Cl)c2c(c1Cl)C(=O)N(Cc1c(C)cc(C)[nH]c1=O)CC2)C1CN(C(=O)CO)C1 (single isomer, unassigned) [Example 129]
39 | 0.046 | 0.249 |  |  | COC(c1cc(Br)c2c(c1Cl)C(=O)N(Cc1c(C)cc(C)[nH]c1=O)CC2)C1CN(C(=O)CO)C1 (single isomer, unassigned) [Example 138]
40 |  |  | 0.0001 | 0.003 | COC(c1cc(Cl)c2c(c1Cl)C(=O)N(Cc1c(C)cc(C)[nH]c1=O)CC2)C1CCN(C)CC1 (single isomer, unassigned) [Example 136]
41 | 0.0019 | 0.018 |  |  | CCC(OC)c1cc(Cl)c2c(c1Cl)C(=O)N(Cc1c(OC)cc(C)[nH]c1=O)CC2 (single isomer, unassigned) [Example 107]
